Test results taken from patent US6399606B1, “Neuroprotective agents and methods related thereto” (Nippon Kayaku Co., Ltd., priority 1999, dated 2002).

Tested on: rat taxol induced neuropathy model
Experiment: Rat taxol neuropathy model (sensory nerve conduction velocity)
Type: in vivo, Sprague-Dawley female rats
Details: once daily
Procedure: In vivo efficacy of representative compounds were tested with rat taxol induced neuropathy model reported by Cliffer et al. (Ann. Neurol 43:46-55, 1998).
Method Sprague-Dawley female rats (215-225g) were used. One week prior to the initiation of dosing with test compounds, base line electrophysiological recording were obtained. Dosing of the test compounds was initiated one day prior to the first injection of taxol (A.G. Scientific). Beginning on Day 2 animals were injected with total of two doses of 15 mg/kg paclitaxel giving 3 days apart, for a cumulative dose of […].
On Day 1 of the study, all rat were randomized into groups of 10 each and weighed. Dosing with test compounds was initiated on Day 1 and continued for a total of 45 days. Test compounds were administered by intraperitoneal (i.p.) injection or by post orum (p.o.) gavage in conscious once daily. Paclitaxel was administered on Day 2 and 5 by tail vein injection at 6 mg/ml in 50% saline/25%Cremophore/25% ethanol. One group was given the paclitaxel vehicle alone in an equivalent volume. Test compounds were formulated for dosing daily, immediately prior to dosing. The compounds were formulated by adding 15% of the final volume of pure PEG400 to the compounds and mixed on an orbital shaker for 40 minutes. Following dissolution, saline was added and the solution was vortexed. Taxol (A.G. Scientific) is solvated with Cremophore-ethanol vehicle at 12 mg/ml and then diluted 50/50 with saline. The test compounds are solvated with saline at appropriate concentration.
Sensory and motor nerve conduction velocities were evaluated using a method based in the protocol described by De Koning and Gispen (Peptides 8:415-422, 1987). Electrophysiological evaluation was carried out as a double blind study. Animals were anesthetized with isofluorane. In order to maintain body temperature, anesthetized animals were placed on Deltaphase ™ Isothermal Pads and rectal temperatures were monitored. Stimulating needle electrodes were inserted close to the sciatic nerve at the sciatic notch and the tibial nerve near the ankle. Subcutaneous recording electrodes were placed over the distal lumbricales foot muscles. Stimuli were supramaximal square-waves of 0.1 msec duration generated with a Grass S88 Stimulator through a Grass stimulation isolation unit. An ETH-260 Bride/Bio Amplifier (CB Sciences Inc), computer (Macintosh Iici), and data acquisition system (MacLab/200) were used for the recordings. The motor and sensory nerve conduction velocities were calculated by measuring the distance between the sciatic notch and ankle sites, and the latency between the M-wave and the H-reflex. The electrophysiological evaluations were conducted 2 weeks later. Statistical analysis was carried out using unpaired t-tests and repeated measures of analysis of variance (ANOVA) using Statview. In all cases 5% was chosen as the level of statistical significance in two-tailed tests.

[1] = p.o. administration, 20 mg/kg, FIG. 2, 3

SMILES | amelioration of taxol-induced retardation of sensory nerve conduction velocity [1] | other results
COC(=O)CC(CSC[C@H](NC(C)=O)C(=O)OC)C(=O)c1cccnc1 (stereo partly drawn) [compound 60] |  | amelioration of taxol-induced retardation of sensory nerve conduction velocity (i.p. administration at 10 mg/kg, FIG. 1, 3): active
CC(=O)NCCSCC(CC(=O)N(C)C)C(=O)c1cccnc1 (stereo not drawn) [compound 188] |  | amelioration of taxol-induced retardation of sensory nerve conduction velocity (p.o. administration, 40 mg/kg, FIG. 2, 3): active
CC(=O)NCCSCC(CC(=O)N1CCCCC1)C(=O)c1cccnc1 (stereo not drawn) [compound 189] | active | amelioration of taxol-induced retardation of sensory nerve conduction velocity (i.p. administration at 2.5 mg/kg, FIG. 2): active
CCN(CC)CCN(C)C(=O)C(CSCC(CC(=O)N(C)C)C(=O)c1cccnc1)NC(C)=O (stereo not drawn) [compound 438] | active | 
CC(=O)N[C@@H](CSCC(CC(=O)N(C)C)C(=O)c1cccnc1)C(=O)N1CCN(C)CC1 (stereo partly drawn) [compound 440] | active | 
